Laboratory results as given in US10709697B2, “Bis-amines, compositions, and uses related to CXCR4 inhibition” (Emory University, priority 2015, dated 2020).

Columns and labels:
CXCR4 = target: T1, CXCR4 (Homo sapiens, UniProt P61073); assay: Primary binding affinity screening (competition with biotinylated TN14003)
T1 construct: endogenous in cells; host or cells: MDA-MB-231
Description: The compounds were initially screened with a binding affinity assay. […] MDA-MB-231 cells were pre-incubated with compounds at concentrations of 1, 10, 100, and 1000 nM, then incubated with biotinylated TN14003 and streptavidin-conjugated rhodamine to determine the binding efficiency of the new compounds to the CXCL12 binding domain of CXCR4. […] Thus, this screening is a semi-quantitative, first pass measure of the level of activity.
For binding affinity assay, 2×10^4 MDA-MB-231 cells in 300 μL of cell culture medium were seeded in an 8-well slide chamber 2 days before the experiments were conducted. Various concentrations of different compounds (1, 10, 100, or 1000 nM) were added to the separate wells and incubated for 10 min at room temperature, and then the cells were fixed in 4% ice-cold paraformaldehyde. The cells were rehydrated in phosphate-buffered saline (PBS). The slides were subsequently incubated for 30 min at room temperature with 0.05 μg/mL biotinylated TN14003, washed three times with PBS, and incubated in streptavidin-rhodamine (1:150 dilution; Jackson ImmunoResearch Laboratories, West Grove, Pa.) for 30 min at room temperature. Finally, the slides were washed with PBS and mounted in an anti-fade mounting solution (Molecular Probes, Eugene, Oreg.), and the samples were analyzed on a Nikon Eclipse E800 microscope.

[1] = system: CXCR4/CXCL12-mediated chemotaxis and invasion; assay: Matrigel invasion assay; format: cell-based; details: for inhibition at 0.1 µM: single concentration of 100 nM, CXCL12 as chemoattractant, FIG. 2, read-out: inhibitory rate, Matrigel invasion; for Invasion Assay: Table 2; for Invasion: Table 3, concentration used 100 nM
Description: To model in vitro metastasis, a Matrigel® invasion assay was used as the functional assay. […] A layer of Matrigel® matrix-coated permeable support (8 μm pore diameter) separates the upper and lower chambers.

[2] = system: carrageenan-induced mouse paw edema; assay: In vivo suppression against carrageenan-induced paw edema; details: for Carageenan: Table 3, mice dosed 10 mg of compound per kg; for inflammation-suppression percentage (paw edema): female C57BL/6J mice, 74 h after carrageenan challenge
Description: CXCR4 plays a role in the recruitment of inflammatory cells to sites of inflammation. Blocking CXCR4 is a therapeutic strategy in inflammatory diseases. A carrageenan-induced mouse paw edema model as an efficient model to evaluate the in vivo CXCR4 antagonistic activity for CXCR4 inhibitors.
Acute inflammation was induced by subcutaneous injection of 50 μL of λ-carrageenan (1% w/v in saline) into one of the hind paws of the female C57BL/6J mice (Jackson Laboratories); the other hind paw was injected with 50 μL of saline, which was used as a non-inflammation control. The selected compounds were dissolved in 10% DMSO and 90% of 45% (2-hydroxypropyl)-β-cyclodextrin (CD) in PBS. In the treatment group, compounds IIg, IIk, IIm and IIn were administered intraperitoneally (i.p.) at 10 mg/kg daily, while TN14003 was administered at 300 μg/kg, i.p., daily, 30 min following carrageenan challenge. The rationale for using 300 μg/kg for TN14003 was that this concentration was reported to be the minimum concentration needed to achieve the maximum efficacy of this compound in a […] metastasis animal model. See Yoon et al. CXC chemokine receptor-4 antagonist blocks both growth of primary tumor and metastasis of head and neck cancer in xenograft mouse models. Cancer Res., 67 (2007), pp. 7518-7524. Control animals received corresponding i.p. injections of the vehicle. The animals were sacrificed 74 h after carrageenan challenge and 2 h after the last injection of the selected compounds. The final paws were photographed and measured for thickness from the “palm” to the back of the paw with a caliper. These were compared to the volume of carrageenan-untreated contralateral paw to obtain the edema volume; the volume of the contralateral paw was subtracted from the volume of the carrageenan injected paw to obtain the edema volume. The inflammation-suppression percentage was calculated by comparing the drug-treated group to the control group.

[3] = effective concentration = lowest concentration with significant reduction of rhodamine fluorescence, MDA-MB-231 cells, tested at 1, 10, 100, 1000 nM

T1 sequence (P61073 whole entry): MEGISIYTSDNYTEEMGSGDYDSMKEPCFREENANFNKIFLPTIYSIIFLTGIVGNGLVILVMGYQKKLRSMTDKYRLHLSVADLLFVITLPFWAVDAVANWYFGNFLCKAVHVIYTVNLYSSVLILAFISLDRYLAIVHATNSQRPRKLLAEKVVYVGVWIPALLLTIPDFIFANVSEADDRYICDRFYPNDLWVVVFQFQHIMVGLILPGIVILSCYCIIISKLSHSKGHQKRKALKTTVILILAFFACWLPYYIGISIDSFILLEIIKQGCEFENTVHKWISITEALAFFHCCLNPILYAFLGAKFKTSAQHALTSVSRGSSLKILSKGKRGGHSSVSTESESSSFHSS

CN(Cc1cccc(CN(C)c2ccc(F)cc2)n1)c1ccc(F)cc1 [IIe, N,N′-(Pyridine-2,6-diylbis(methylene))bis(4-fluoro-N-methylaniline)]
EC (CXCR4; [3]): 1000 nM | inhibition at 0.1 µM [1]: < 50%

CN(Cc1ccc(CN(C)Cc2cccc(Cl)c2)cc1)Cc1cccc(Cl)c1 [Ig, N,N′-(1,4-Phenylenebis(methylene))bis(1-(3-chlorophenyl)-N-methylmethanamine)]
EC (CXCR4; [3]): 1000 nM

Fc1cccc(NCc2ccc(CNc3cccc(F)c3)nc2)c1 [2,5-pyridine H 3-F Phenyl, N,N′-(Pyridine-2,5-diylbis(methylene))bis(3-fluoroaniline)]
EC (CXCR4; Table 2): 10 nm | Invasion Assay [1]: 50%

CN(Cc1ccc(CN(C)Cc2cccnc2)cc1)Cc1cccnc1 [Io, N,N′-(1,4-Phenylenebis(methylene))bis(N-methyl-1-(pyridin-3-yl)methanamine)]
EC (CXCR4; [3]): >1000 nM

COc1cccc(CN(C)Cc2ccc(CN(C)Cc3cccc(OC)c3)cc2)c1 [Ik, N,N′-(1,4-Phenylenebis(methylene))bis(1-(3-methoxyphenyl)-N-methylmethanamine)]
EC (CXCR4; [3]): 10 nM | inhibition at 0.1 µM [1]: < 50%

c1cc(CN2CCOCC2)nc(CN2CCOCC2)c1 [2,6-Bis(morpholinylmethyl)pyridine]
Carageenan [2]: 39.1% | EC (CXCR4; Table 3): 10 nM | Invasion [1]: 63%

COc1cccc(NCc2cccc(CNc3cccc(OC)c3)n2)c1 [2,6-Bis(3-methoxyanilinomethyl)pyridine]
Carageenan [2]: 20.1% | EC (CXCR4; Table 3): 100 nM | Invasion [1]: 37%

CN(Cc1ccc(CN(C)Cc2ccccn2)cc1)Cc1ccccn1 [In, N,N′-(1,4-Phenylenebis(methylene))bis(N-methyl-1-(pyridin-2-yl)methanamine)]
EC (CXCR4; [3]): >1000 nM

CCc1ccc(NCc2cccc(CNc3ccc(CC)cc3)n2)cc1 [2,6-Bis(4-ethylanilinomethyl)pyridine]
Carageenan [2]: 42.0% | EC (CXCR4; Table 3): 1 nM | Invasion [1]: 64%

TN14003 [reference compound]
inflammation-suppression percentage (paw edema) ([2]; 300 μg/kg i.p. daily): 48%

CN(Cc1ccncc1)Cc1ccc(CN(C)Cc2ccncc2)cc1 [Ip, N,N′-(1,4-Phenylenebis(methylene))bis(N-methyl-1-(pyridin-4-yl)methanamine)]
EC (CXCR4; [3]): >1000 nM

CN(Cc1cccc(Cl)c1)Cc1cccc(CN(C)Cc2cccc(Cl)c2)n1 [IIg, N,N′-(Pyridine-2,6-diylbis(methylene))bis(1-(3-chlorophenyl)-N-methylmethanamine)]
EC (CXCR4; [3]): 10 nM | inhibition at 0.1 µM [1]: 88.6%

CN(Cc1ccc(CN(C)Cc2ccccc2F)cc1)Cc1ccccc1F [Ih, N,N′-(1,4-Phenylenebis(methylene))bis(1-(2-fluorophenyl)-N-methylmethanamine)]
EC (CXCR4; [3]): >1000 nM

CCN(Cc1ccccc1)Cc1ccc(CN(CC)Cc2ccccc2)cc1 [Il, N,N′-(1,4-Phenylenebis(methylene))bis(N-benzylethanamine)]
EC (CXCR4; [3]): 1000 nM

c1cc(CN2CCOCC2)nc(CN2CCOCC2)c1 [IIc, 2,6-Bis(morpholinomethyl)pyridine]
EC (CXCR4; [3]): 100 nM | inhibition at 0.1 µM [1]: 68.9%

CN(Cc1cccc(CN(C)Cc2ccccc2Cl)n1)Cc1ccccc1Cl [IIf, N,N′-(Pyridine-2,6-diylbis(methylene))bis(1-(2-chlorophenyl)-N-methylmethanamine)]
EC (CXCR4; [3]): >1000 nM

FC(F)(F)c1ccc(NCc2cccc(CNc3ccc(C(F)(F)F)cc3)n2)cc1 [2,6-Bis(4-trifluoromethylanilinomethyl)pyridine]
Carageenan [2]: 20.3% | EC (CXCR4; Table 3): 1 nM | Invasion [1]: 52%

Cc1cccc(NCc2ccc(CNc3cccc(C)c3)nc2)c1 [N,N′-(Pyridine-2,5-diylbis(methylene))bis(3-methylaniline)]
EC (CXCR4; Table 2): 100 nm | EC (CXCR4; Table 3): 1 nM | Invasion Assay [1]: 60.2% | Invasion [1]: 58%

CN(Cc1ccc(CN(C)Cc2cccc(F)c2)cc1)Cc1cccc(F)c1 [Ii, N,N′-(1,4-Phenylenebis(methylene))bis(1-(3-fluorophenyl)-N-methylmethanamine)]
EC (CXCR4; [3]): >1000 nM

CN(Cc1cccnc1)Cc1cccc(CN(C)Cc2cccnc2)n1 [IIo, N,N′-(Pyridine-2,6-diylbis(methylene))bis(N-methyl-1-(pyridin-3-yl)methanamine)]
EC (CXCR4; [3]): >1000 nM

c1ccc(CN(Cc2ccc(CN(Cc3ccccc3)CC3CC3)cc2)CC2CC2)cc1 [Im, N,N′-(1,4-Phenylenebis(methylene))bis(N-benzyl-1-cyclopropylmethanamine)]
EC (CXCR4; [3]): 1000 nM

CCc1ccccc1NCc1cccc(CNc2ccccc2CC)n1 [2,6-Bis(2-ethylanilinomethyl)pyridine]
Carageenan [2]: 18.1% | EC (CXCR4; Table 3): 1 nM | Invasion [1]: 59%

COc1cccc(CN(C)Cc2cccc(CN(C)Cc3cccc(OC)c3)n2)c1 [IIk, N,N′-(Pyridine-2,6-diylbis(methylene))bis(1-(3-methoxyphenyl)-N-methylmethanamine)]
inflammation-suppression percentage (paw edema) ([2]; 10 mg/kg i.p. daily): 31.0% | EC (CXCR4; [3]): 10 nM | inhibition at 0.1 µM [1]: 76.7%

CN(Cc1ccc(CN(C)Cc2ccccc2Cl)cc1)Cc1ccccc1Cl [If, N,N′-(1,4-Phenylenebis(methylene))bis(1-(2-chlorophenyl)-N-methylmethanamine)]
EC (CXCR4; [3]): >1000 nM

CN(Cc1ccc(F)cc1)Cc1cccc(CN(C)Cc2ccc(F)cc2)n1 [IIj, N,N′-(Pyridine-2,6-diylbis(methylene))bis(1-(4-fluorophenyl)-N-methylmethanamine)]
EC (CXCR4; [3]): 1000 nM

c1ccc(CN(Cc2cccc(CN(Cc3ccccc3)CC3CC3)n2)CC2CC2)cc1 [IIm, N,N′-(Pyridine-2,6-diylbis(methylene))bis(N-benzyl-1-cyclopropylmethanamine)]
EC (CXCR4; [3]): 1 nM | inhibition at 0.1 µM [1]: 100%

CN(Cc1ccncc1)Cc1cccc(CN(C)Cc2ccncc2)n1 [IIp, N,N′-(Pyridine-2,6-diylbis(methylene))bis(N-methyl-1-(pyridin-4-yl)methanamine)]
EC (CXCR4; [3]): >1000 nM

CN(Cc1cccc(CN(C)Cc2ccccc2F)n1)Cc1ccccc1F [IIh, N,N′-(Pyridine-2,6-diylbis(methylene))bis(1-(2-fluorophenyl)-N-methylmethanamine)]
EC (CXCR4; [3]): 1000 nM

c1cc(CN2CCCCC2)nc(CN2CCCCC2)c1 [IIb, 2,6-Bis(piperidin-1-ylmethyl)pyridine]
EC (CXCR4; [3]): 1 nM | inhibition at 0.1 µM [1]: 65.3%

c1cc(CN2CCCNCCNCCCNCC2)ccc1CN1CCCNCCNCCCNCC1 [AMD3100, reference compound]
EC (CXCR4; Table 3): 1000 nM | EC (CXCR4; [3]): 1000 nM | Invasion [1]: 62%

CN(Cc1cccc(F)c1)Cc1cccc(CN(C)Cc2cccc(F)c2)n1 [IIi, N,N′-(Pyridine-2,6-diylbis(methylene))bis(1-(3-fluorophenyl)-N-methylmethanamine)]
EC (CXCR4; [3]): >1000 nM

c1cc(CN2CCCC2)ccc1CN1CCCC1 [Ia, 1,4-Bis(pyrrolidin-1-ylmethyl)benzene]
EC (CXCR4; [3]): 1000 nM

CCc1ccc(NCc2ccc(CNc3ccc(CC)cc3)nc2)cc1 [2,5-pyridine H 4-Et Phenyl, N′-(Pyridine-2,5-diylbis(methylene))bis(4-ethylaniline)]
EC (CXCR4; Table 2): 1 nm | Invasion Assay [1]: 64%

c1cc(CN2CCCC2)nc(CN2CCCC2)c1 [IIa, 2,6-Bis(pyrrolidin-1-ylmethyl)pyridine]
EC (CXCR4; [3]): 1 nM

CCN(Cc1ccccc1)Cc1cccc(CN(CC)Cc2ccccc2)n1 [IIl, N,N′-(Pyridine-2,6-diylbis(methylene))bis(N-benzylethanamine)]
EC (CXCR4; [3]): >1000 nM
